Laboratory results reported in ChEMBL document CHEMBL4251606, “Design and characterization of α-lipoic acyl shikonin ester twin drugs as tubulin and PDK1 dual inhibitors” (Eur J Med Chem, 2018).
pIC50: −log10 of the molar value. Active and inactive are the calls of the source. The calls are words filed in the database; no cut-off is given here.

Tests used:
[1] = tested on: HepG2; experiment: Antiproliferative activity against human HepG2 cells after 24 hrs by MTT assay; type: functional, cell-based; conditions: HepG2, 24 h
[2] = tested on: HeLa; experiment: Antiproliferative activity against human HeLa cells after 24 hrs by MTT assay; type: functional, cell-based
[3] = tested on: A549; experiment: Antiproliferative activity against human A549 cells after 24 hrs by MTT assay; type: functional, cell-based; conditions: A549, 24 h
[4] = tested on: MDA-MB-231; experiment: Antiproliferative activity against human MDA231 cells after 24 hrs by MTT assay; type: functional, cell-based; conditions: MDA-MB-231, 24 h
[5] = tested on: L02; experiment: Antiproliferative activity against human LO2 cells after 24 hrs by MTT assay; type: cell-based; conditions: L02, 24 h
[6] = tested on: HEK-293T; experiment: Antiproliferative activity against human 293T cells after 24 hrs by MTT assay; type: cell-based
[7] = molecular target: [Pyruvate dehydrogenase (acetyl-transferring)] kinase isozyme 1, mitochondrial (Homo sapiens) (UniProt Q15118); conditions: HeLa, 10 mM
Description: Inhibition of PDK1 in human HeLa cells assessed as increase in PDH-E1 alpha expression at 10 mM by Western blot analysis

[8] = molecular target: [Pyruvate dehydrogenase (acetyl-transferring)] kinase isozyme 1, mitochondrial (Homo sapiens) (UniProt Q15118); conditions: HeLa, 10 mM; remark: listed apart in the source
Description: Inhibition of PDK1 in human HeLa cells assessed as decrease in PDH-E1 alpha p-ser300 expression at 10 mM by Western blot analysis

[9] = molecular target: [Pyruvate dehydrogenase (acetyl-transferring)] kinase isozyme 1, mitochondrial (Homo sapiens) (UniProt Q15118); conditions: HeLa, 10 mM; remark: listed apart in the source
Description: Inhibition of PDK1 in human HeLa cells assessed as decrease in PDH-E1 alpha p-ser232 expression at 10 mM by Western blot analysis

[10] = organism: Homo sapiens; experiment: Inhibition of microtubule polymerization (unknown origin) at 0.5 uM after 24 hrs by immunoblot
[11] = tested on: HeLa; experiment: Inhibition of microtubule polymerization in human HeLa cells at 0.5 uM after 24 hrs by rhodamine/DAPI staining-based confocal microscopic analysis; type: cell-based
[12] = organism: Homo sapiens; experiment: Induction of microtubule polymerization (unknown origin) at 0.5 uM after 24 hrs by immunoblot
[13] = tested on: HeLa; experiment: Induction of microtubule polymerization in human HeLa cells assessed as bundle like formation at 0.5 uM after 24 hrs by rhodamine/DAPI staining-based confocal microscopic analysis; type: cell-based
[14] = tested on: HeLa; experiment: Cell cycle arrest in human HeLa cells assessed as accumulation of cells at G2/M phase at 4 uM after 24 hrs by propidium iodide staining-based FACScan flow cytometric analysis (reference value: 14.97%); type: functional
[15] = tested on: HeLa; experiment: Cell cycle arrest in human HeLa cells assessed as accumulation of cells at S phase at 2 uM after 24 hrs by propidium iodide staining-based FACScan flow cytometric analysis (reference value: 20.45%); type: functional
[16] = tested on: HeLa; experiment: Antitumor activity against human HeLa cells xenografted in nude mouse assessed as reduction in tumor size at 1 mg/kg, ip administered once in every 2 days for 15 days relative to control; type: functional, organism-based
[17] = tested on: HeLa; experiment: Cell cycle arrest in human HeLa cells assessed as accumulation of cells at G2/M phase at 2 uM after 24 hrs by propidium iodide staining-based FACScan flow cytometric analysis (reference value: 14.97%); type: functional
[18] = tested on: HeLa; experiment: Cell cycle arrest in human HeLa cells assessed as accumulation of cells at G1 phase at 1 uM after 24 hrs by propidium iodide staining-based FACScan flow cytometric analysis (reference value: 64.58%); type: functional
[19] = tested on: HeLa; experiment: Cell cycle arrest in human HeLa cells assessed as accumulation of cells at S phase at 4 uM after 24 hrs by propidium iodide staining-based FACScan flow cytometric analysis (reference value: 20.45%); type: functional
[20] = tested on: Mus musculus; experiment: Toxicity in nude mouse xenografted with human HeLa cells assessed as loss in body weight at 1 mg/kg, ip administered once in every 2 days for 15 days; type: organism-based; conditions: in vivo
[21] = tested on: HeLa; experiment: Cell cycle arrest in human HeLa cells assessed as accumulation of cells at G1 phase at 2 uM after 24 hrs by propidium iodide staining-based FACScan flow cytometric analysis (reference value: 64.58%); type: functional
[22] = tested on: HeLa; experiment: Cell cycle arrest in human HeLa cells assessed as accumulation of cells at G2/M phase at 1 uM after 24 hrs by propidium iodide staining-based FACScan flow cytometric analysis (reference value: 14.97%); type: functional
[23] = tested on: HeLa; experiment: Cell cycle arrest in human HeLa cells assessed as accumulation of cells at S phase at 1 uM after 24 hrs by propidium iodide staining-based FACScan flow cytometric analysis (reference value: 20.45%); type: functional
[24] = tested on: HeLa; experiment: Cell cycle arrest in human HeLa cells assessed as accumulation of cells at G1 phase at 4 uM after 24 hrs by propidium iodide staining-based FACScan flow cytometric analysis (reference value: 64.58%); type: functional
[25] = tested on: HeLa; experiment: Inhibition of microtubule polymerization in human HeLa cells at 4 uM after 24 hrs by rhodamine/DAPI staining-based confocal microscopic analysis; type: cell-based

Structure (SMILES)	pIC50 [1]	pIC50 [2]	pIC50 [3]	pIC50 [4]	pIC50 [5]	pIC50 [6]	other results
CC(C)=CC[C@@H](OC(=O)CCCC[C@@H]1CCSC(c2ccccc2Cl)S1)C1=CC(=O)c2c(O)ccc(O)c2C1=O (some centres undefined)	4.95	4.78	4.77	4.69	4.02	4.11	
CC(C)=CC[C@@H](OC(=O)CCCC[C@@H]1CCSC(c2ccc(C)cc2)S1)C1=CC(=O)c2c(O)ccc(O)c2C1=O (some centres undefined)	4.34	4.94	4.92	4.93	4.07	4.05	
O=C(O)C(Cl)Cl [DICHLOROACETIC ACID]	< 4.00	< 4.00	< 4.00	< 4.00	< 4.00	< 4.00	inhibition [7]: Active; inhibition [8]: Active; inhibition [9]: Active
COc1ccc(C2SCC[C@@H](CCCCC(=O)O[C@H](CC=C(C)C)C3=CC(=O)c4c(O)ccc(O)c4C3=O)S2)cc1 (some centres undefined)	4.52	4.80	4.68	4.75	4.02	3.98	
CC(C)=CC[C@@H](OC(=O)CCCC[C@@H]1CCSC(c2cccc(Br)c2)S1)C1=CC(=O)c2c(O)ccc(O)c2C1=O (some centres undefined)	4.66	4.88	4.65	4.57	4.03	3.99	
COc1ccc(C2SCC[C@@H](CCCCC(=O)O[C@H](CC=C(C)C)C3=CC(=O)c4c(O)ccc(O)c4C3=O)S2)cc1OC (some centres undefined)	5.36	4.66	4.71	4.78	4.00	3.93	
CC(C)=CC[C@@H](OC(=O)CCCC[C@@H]1CCSC(c2ccc(Cl)cc2Cl)S1)C1=CC(=O)c2c(O)ccc(O)c2C1=O (some centres undefined)	4.75	5.04	4.76	4.55	3.92	4.05	
CC(C)=CC[C@@H](OC(=O)CCCC[C@@H]1CCSC(c2ccc(Cl)cc2)S1)C1=CC(=O)c2c(O)ccc(O)c2C1=O (some centres undefined)	5.17	4.67	5.13	4.75	4.08	4.19	
CC(C)=CC[C@@H](OC(=O)CCCC[C@@H]1CCSC(c2cccc(C(F)(F)F)c2)S1)C1=CC(=O)c2c(O)ccc(O)c2C1=O (some centres undefined)	5.34	4.70	4.71	4.45	3.87	4.08	
CC(C)=CC[C@@H](OC(=O)CCCC[C@@H]1CCSC(c2cccc(Cl)c2Cl)S1)C1=CC(=O)c2c(O)ccc(O)c2C1=O (some centres undefined)	5.29	4.87	4.97	4.59	3.92	4.01	
COc1cc2c(c(OC)c1OC)-c1ccc(OC)c(=O)cc1[C@@H](NC(C)=O)CC2 [COLCHICINE]	5.33	5.60	5.33	5.41	5.52	5.20	inhibition [10]: Active; inhibition [11]: Active
CC(=O)O[C@H]1C(=O)[C@@]2(C)[C@H]([C@H](OC(=O)c3ccccc3)[C@]3(O)C[C@H](OC(=O)[C@H](O)[C@@H](NC(=O)c4ccccc4)c4ccccc4)C(C)=C1C3(C)C)[C@]1(OC(C)=O)CO[C@@H]1C[C@@H]2O							Activity [12]: Active; Activity [13]: Active
CC(C)=CC[C@@H](OC(=O)CCCC[C@@H]1CCSS1)C1=CC(=O)c2c(O)ccc(O)c2C1=O	4.76	4.54	4.84	4.59	3.99	4.08	
COc1ccccc1C1SCC[C@@H](CCCCC(=O)O[C@H](CC=C(C)C)C2=CC(=O)c3c(O)ccc(O)c3C2=O)S1 (some centres undefined)	4.57	5.00	5.22	4.62	3.93	4.10	
CC(C)=CC[C@@H](OC(=O)CCCC[C@@H]1CCSC(c2ccc(C(C)C)cc2)S1)C1=CC(=O)c2c(O)ccc(O)c2C1=O (some centres undefined)	4.59	4.76	4.71	5.05	4.07	3.97	
CC(C)=CC[C@@H](O)C1=CC(=O)c2c(O)ccc(O)c2C1=O [SHIKONIN]	5.16	5.16	5.45	5.06	5.47	4.20	Activity [14]: 28.12%; Activity [15]: 13.25%; Activity [16]: Active; Activity [17]: 24.03%; Activity [18]: 63.83%; Activity [19]: 14.13%; Activity [20]: Toxic; Activity [21]: 62.72%; Activity [22]: 18.75%; Activity [23]: 17.42%; Activity [24]: 57.75%; inhibition [25]: Active
CC(C)=CC[C@@H](OC(=O)CCCC[C@@H]1CCSC(c2ccccc2C)S1)C1=CC(=O)c2c(O)ccc(O)c2C1=O (some centres undefined)	4.61	4.83	5.00	4.76	4.05	3.99	
CC(C)=CC[C@@H](OC(=O)CCCC[C@@H]1CCSC(c2ccc(C(F)(F)F)cc2)S1)C1=CC(=O)c2c(O)ccc(O)c2C1=O (some centres undefined)	4.93	4.63	4.99	5.02	4.04	4.13	
CC(C)=CC[C@@H](OC(=O)CCCC[C@@H]1CCSC(c2ccc([N+](=O)[O-])cc2)S1)C1=CC(=O)c2c(O)ccc(O)c2C1=O (some centres undefined)	4.69	4.57	4.65	4.79	4.02	4.02	
CC(C)=CC[C@@H](OC(=O)CCCC[C@@H]1CCSC(c2c(Cl)cccc2Cl)S1)C1=CC(=O)c2c(O)ccc(O)c2C1=O (some centres undefined)	4.83	5.05	4.98	4.54	4.10	4.16	
CC(C)=CC[C@@H](OC(=O)CCCC[C@@H]1CCSC(C2CCCCC2)S1)C1=CC(=O)c2c(O)ccc(O)c2C1=O (some centres undefined)	4.55	4.66	4.57	4.71	3.97	3.94	
